Data set [1] in a line: Plasma protein binding (PPB), human. The format is in vitro ADME. The settings on record: 5 h dialysis, read-out: Plasma protein binding rate (%) Human (converted). How it is done: Sample preparation: The compound was dissolved in DMSO to a stock solution of 10 mM, then the compound was diluted with PBS to a secondary stock solution of 0.02 mM, and then the above 0.02 mM was diluted to 1 μM using blank plasma, which was the sample to be incubated.
Dialysis set-up preparation: 400 μL of blank PBS was first added to the white wells of the equilibrated dialysis plate and 200 μL of the configured plasma sample was added to the red wells, and the dialysis plate was sealed with a sealing film.
Recovery plate preparation: Two 96-well deep-well plates, labelled T0 and T5, were prepared and all plasma samples were added at n=2. 300 μL of acetonitrile (Verapamil-HCl, 4 ng/mL) was added directly to the TO plate, followed by 50 μL of blank PBS mix well for 5 min and left to stand in a 4° C. refrigerator until the end of the incubation.
Experimental Operation: The dialysis device and the T5 plate were incubated together for 5 h in a microplate thermostatic shaker (37° C., using 300 rpm or minimum speed). At the end of the incubation, 300 μL of acetonitrile (Verapamil-HCl, 4 ng/mL) was added and 50 μL of PBS solution was added. At the end of the dialysis incubation, a new 96-well deep well plate was taken. […]

For data set [2], the target named is T1, hERG potassium channel (Homo sapiens, UniProt Q12809).
T1 construct: expressed in transfected cells; host or cells: CHO (Chinese hamster ovary) stably transfected cell line
Description: hERG potassium channel inhibition assay (patch clamp, CHO hERG cells). The settings on record: CHO cells overexpressing hERG potassium channel, whole cell patch clamp. It counts as cell-based. (hERG is a cardiac potassium channel; its block is linked to QT prolongation.)
Description: The cell line used for the patch clamp assay was a 10th generation CHO cell overexpressing hERG potassium channel cDNA.
CHO hERG cells were cultured in Petri dishes or flasks at 37° C. in a 5% CO2 incubator. Cells were dropped onto circular slides 24-48 hours prior to electrophysiological experiments and cultured in cell culture medium and used for experiments after the cells had been adhered.
Compound powders are dissolved in the extracellular solution and are subjected to a routine 5 to 10 minute sonication and shaking to ensure complete dissolution of the compound.
The final concentrations of compounds used for electrophysiological assays were 5, 20 μM and the final concentration of DMSO was 0.1%.
Cell membrane currents were recorded using a HEKA EPC-10 USB patch-clamp amplifier (HEKA Elektronik, Germany).
1) A coverslip with a large number of uniformly growing individual CHO hERG cells on its surface was taken. Place in a continuous recording cell on an inverted microscope, perfused with extracellular fluid (approximately 1 ml per minute) and recorded continuously, waiting for the current to stabilize. […]
3) The extracellular solution containing the drug to be tested was then perfused and recorded until the inhibitory effect of the drug on the hERG current reached a steady state, at which point the peak tail current was the post-drug current value. […]

Data set [3] addresses T2, CYP2B6 (Homo sapiens, UniProt P20813).
T2 sequence (P20813 1-491): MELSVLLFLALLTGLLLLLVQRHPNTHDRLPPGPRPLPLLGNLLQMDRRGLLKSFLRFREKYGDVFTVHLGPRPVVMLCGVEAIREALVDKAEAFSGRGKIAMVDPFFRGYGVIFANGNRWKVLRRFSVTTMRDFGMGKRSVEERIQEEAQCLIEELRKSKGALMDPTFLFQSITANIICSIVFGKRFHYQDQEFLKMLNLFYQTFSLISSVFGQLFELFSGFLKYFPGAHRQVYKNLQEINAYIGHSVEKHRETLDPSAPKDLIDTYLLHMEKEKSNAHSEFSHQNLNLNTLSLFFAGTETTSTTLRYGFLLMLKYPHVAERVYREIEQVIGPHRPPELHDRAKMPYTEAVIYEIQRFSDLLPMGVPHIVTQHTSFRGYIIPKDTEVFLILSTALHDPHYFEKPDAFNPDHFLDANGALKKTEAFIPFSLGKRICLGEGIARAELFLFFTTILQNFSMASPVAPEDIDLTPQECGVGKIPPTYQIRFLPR
Put plainly: Inhibition of cytochrome P450, 2B6. Conditions: CYP2B6 enzyme, pH 7.4, compound concentration 10 μM, read-out: CYP inhibition/% 2B6. It counts as in vitro ADME. On the procedure:
Enzymatic experiments were performed to quantify the inhibition of CYP450 enzyme activity of each isoform of CYP450 by small molecule inhibitors through fluorescence generated by the oxidation of the substrate by cytochrome P450. […] The Solution B composition used for the experiment was: 40 U/mL G6PDH (Sigma-aldrich, Cat #G6378). The substrate mix was 0.05× Solution A, 0.01× Solution B, 50 mM Potassium Phosphate, 0.01 mM BOMCC/0.01 mM EOMCC/0.001 mM DBOMF. […] The data were analyzed and processed using GraphPad Prism 6 software to obtain IC50 values.

Each structure is given as a SMILES string.

T1 sequence (Q12809 whole entry): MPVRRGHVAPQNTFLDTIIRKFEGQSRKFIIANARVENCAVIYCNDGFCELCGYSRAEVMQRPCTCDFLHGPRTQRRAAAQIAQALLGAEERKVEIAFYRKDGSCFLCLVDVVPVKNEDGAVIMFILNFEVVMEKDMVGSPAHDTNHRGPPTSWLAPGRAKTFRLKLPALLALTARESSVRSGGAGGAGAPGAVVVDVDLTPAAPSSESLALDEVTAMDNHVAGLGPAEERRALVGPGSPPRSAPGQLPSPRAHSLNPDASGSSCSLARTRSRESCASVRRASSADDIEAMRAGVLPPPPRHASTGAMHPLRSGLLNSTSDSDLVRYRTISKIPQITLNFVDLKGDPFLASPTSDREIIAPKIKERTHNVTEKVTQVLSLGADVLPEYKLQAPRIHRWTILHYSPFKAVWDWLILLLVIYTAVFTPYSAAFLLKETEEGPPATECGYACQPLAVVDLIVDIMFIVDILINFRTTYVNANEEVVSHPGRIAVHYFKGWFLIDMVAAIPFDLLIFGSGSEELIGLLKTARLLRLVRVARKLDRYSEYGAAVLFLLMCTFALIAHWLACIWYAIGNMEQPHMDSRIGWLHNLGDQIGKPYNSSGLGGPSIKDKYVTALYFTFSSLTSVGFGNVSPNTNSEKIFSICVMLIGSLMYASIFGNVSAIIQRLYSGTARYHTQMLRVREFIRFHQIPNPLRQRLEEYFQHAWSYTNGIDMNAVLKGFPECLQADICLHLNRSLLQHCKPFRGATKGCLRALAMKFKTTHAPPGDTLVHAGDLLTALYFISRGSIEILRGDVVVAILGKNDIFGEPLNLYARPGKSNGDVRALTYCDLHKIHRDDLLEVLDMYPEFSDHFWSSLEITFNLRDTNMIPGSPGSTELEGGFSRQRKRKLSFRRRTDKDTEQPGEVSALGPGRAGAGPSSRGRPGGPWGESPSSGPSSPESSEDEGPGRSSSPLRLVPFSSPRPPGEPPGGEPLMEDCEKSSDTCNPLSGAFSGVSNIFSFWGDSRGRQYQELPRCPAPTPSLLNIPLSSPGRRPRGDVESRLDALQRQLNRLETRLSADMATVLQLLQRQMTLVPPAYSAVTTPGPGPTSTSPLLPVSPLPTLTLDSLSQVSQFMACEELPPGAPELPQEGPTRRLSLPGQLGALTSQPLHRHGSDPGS

Take `C=CCn1c(=O)c2cnc(Nc3ccc(N4CCN(C)CC4)cc3)nc2n1-c1cccc(C(C)(C)O)n1` [AZD-1775, reference compound]: the fraction unbound at 5 h, 1 µM in data set [1] is 0.36.

For the molecule `CN1CCN(c2ccc(Nc3ncc4cnn(-c5cccc(N=S(C)(C)=O)n5)c4n3)cc2)CC1` [Compound 1], the fraction unbound at 5 h, 1 µM in data set [1] was 0.144. Further, the inhibition at 5 µM in data set [2] (5 μM) stood at 5.07%. In addition, in data set [2] (20 μM), the inhibition at 20 µM turned out to be 15.1%. In addition, in data set [3], the inhibition at 30 min, 10 µM amounted to 4.38%.

The values are drawn from patent publication US12649748B2, “Wee1 inhibitor and use thereof” (JIANGSU TASLY DIYI PHARMACEUTICAL CO., LTD., priority 2021, dated 2026).
